Data as given in US12240853B2, “Compounds useful in HIV therapy” (GlaxoSmithKline Intellectual Property (No.2) Limited, priority 2019, dated 2025).

What was measured:
[1] = EFdA rat PK studies (SC and IM); assay type: in vivo, Wistar Han rats
Excerpt: A total of seven naïve male Wistar Han rats, 200-250 g, were received from the supplier equipped with a surgically-implanted jugular vein catheter (JVC) for blood sample collection. Following an acclimation period, the animals were assigned to the study based on acceptable health as determined by a staff veterinarian and catheter patency. Animals were placed into two groups of 3 rats per group. Fasting of the animals before or after dosing was not required.
On Day 1 each animal in Group 1 received a single subcutaneous injection of prepared test article at a target dose level of 20 mg/kg and at a dose volume of 0.33 mL/kg. Each animal in Group 2 received a single intramuscular injection of prepared test article into a thigh muscle at a target dose level of 20 mg/kg and at a dose volume of 0.33 mL/kg. The injection sites were shaved prior to dosing and identified with an indelible marker for daily monitoring during the study. The animals were manually restrained for dosing and were not sedated. The dose suspension was mixed well by inversion before each dose to ensure homogeneity. […] In addition, all animals are monitored twice daily by the veterinary staff for clinical abnormalities. […]
The PK plasma samples were analyzed by the Testing Facility to determine the concentration of EFdA using an LC-MS/MS Research Grade Assay (RGA-1) with sensitivity to 0.1 ng/mL. […]

[2] = tested on: HIV pseudotyped virus, M184V; assay type: cell-based; details: U373 cells (CD4, CXCR4 or CCR5), luciferase signal after 3 days
[3] = tested on: HIV pseudotyped virus (NL4-3 provirus, luciferase reporter), WT; assay: PSV (pseudotyped virus) assay, WT; details: Human immunodeficiency virus 1, NL43, 72 h, read-out: WT IC50
Description: A pseudotyped virus assay (PSV) was used to assess the potency of the HIV inhibitor.
The PSV assay was performed by using U373 cells stably transformed to express human CD4, the primary receptor for HIV entry and either human CXCR4 or human CCR5 which are the co-receptors required for HIV entry as target cells for infection. […] This dose-range was applied to U373 cells and the pre-made pseudotyped virus added. The amount of luciferase signal produced after 3 days of culture was used to reflect the level of pseudotyped virus infection. An IC50, or the concentration of inhibitor required to reduce PSV infection by 50% from the infection containing no inhibitor was calculated. […] IC50 values were determined from a 10 point dose response curve using 3-4-fold serial dilution for each compound, which spans a concentration range>1000 fold.
These values are plotted against the molar compound concentrations using the standard four parameter logistic equation: y=((Vmax*x^n)/(K^n+x^n))+Y2

| Compound | Clinical observations and injection site reactions ([1]; 20 mg/kg single SC or IM injection, study period to Day 29) | Detectable duration of exposure of EFdA ([1]; IM and SC administration of 20 mg/kg EFdA) | IC50 [2] | IC50 [3] |
| --- | --- | --- | --- | --- |
| C#C[C@]1(CO)O[C@@H](n2cnc3c(N)nc(F)nc32)C[C@@H]1O [EFdA, (2R,3S,5R)-5-(6-amino-2-fluoro-9H-purin-9-yl)-2-ethynyl-2-(hydroxymethyl)tetrahydrofuran-3-ol] | No abnormal clinical observations and no injection site reactions | less than 8 days | – | – |
| C#C[C@]1(COC(=O)Cc2ccccc2)O[C@@H](n2cnc3c(N)nc(F)nc32)C[C@@H]1O [Example 3, [(2R,3S,5R)-5-(6-amino-2-fluoro-9H-purin-9-yl)-2-ethynyl-3-hydroxyoxolan-2-yl]methyl 2-phenylacetate] | – | – | 10 nM | 2 nM |
| C#C[C@]1(COC(=O)[C@H]2CC[C@H](CCCCC)CC2)O[C@@H](n2cnc3c(N)nc(F)nc32)C[C@@H]1O [Example 5, ((2R,3S,5R)-5-(6-amino-2-fluoro-9H-purin-9-yl)-2-ethynyl-3-hydroxytetrahydrofuran-2-yl)methyl trans-4-pentylcyclohexane-1-carboxylate] | – | – | 7 nM | 1 nM |
| C#C[C@]1(COC(=O)CCCCCC)O[C@@H](n2cnc3c(N)nc(F)nc32)C[C@@H]1OC(=O)CCCCCC [Example 16, (2R,3S,5R)-5-(6-amino-2-fluoro-9H-purin-9-yl)-2-ethynyl-2-((heptanoyloxy)methyl)tetrahydrofuran-3-yl Heptanoate] | – | – | 31 nM | 8 nM |
| C#C[C@]1(COC(=O)CCCC(=O)OCCCCCCCCCCCCCC)O[C@@H](n2cnc3c(N)nc(F)nc32)C[C@@H]1O [Example 14, ((2R,3S,5R)-5-(6-amino-2-fluoro-9H-purin-9-yl)-2-ethynyl-3-hydroxytetrahydrofuran-2-yl)methyl Tetradecyl Glutarate] | – | – | 148 nM | 33 nM |
| C#C[C@]1(COC(=O)CCCCCCCCCCCCC)O[C@@H](n2cnc3c(N)nc(F)nc32)C[C@@H]1OC(=O)CCCCCCCCCCCCC [Example 17, (2R,3S,5R)-5-(6-amino-2-fluoro-9H-purin-9-yl)-2-ethynyl-2-((tetradecanoyloxy)methyl)tetrahydrofuran-3-yl Tetradecanoate] | – | – | 10300 nM | 1740 nM |
